Assay results published in publication PMC11440035, “Interaction of myricetin, ampelopsin (dihydromyricetin), and their sulfate metabolites with serum albumin, cytochrome P450 (CYP2C9, 2C19, and 3A4) enzymes, and organic anion‐transporting polypeptides (OATP1B1 and OATP2B1)” (Pharmacology Research & Perspectives, 2024).

Experiments:
CYP3A4 = tested on: T1, CYP3A4; assay: CYP3A4 assay (testosterone hydroxylation), CypExpress human kit; type: biochemical; settings: 20 μM, 5 μM substrate
T1 construct: purchased Merck (Darmstadt, Germany)

CYP2C9 = settings: 20 μM test substance, 5 μM substrate
[1] = tested on: T2, human serum albumin (HSA); design: method as in PMID 30562928, PMID 28135601; settings: same experimental conditions; cited from earlier work
T2 construct: purchased Merck (Darmstadt, Germany) A1653

OATP1B1 [2] = target: T3, OATP1B1 (Homo sapiens, UniProt Q9Y6L6); assay: Uptake of flavonoids by A431-OATP1B1 versus mock cells (APB fluorescence); type: cell-based; settings: BSP 20 μM, M3′S 2 μM, 2 min
T3 construct: expressed in transfected cells; host or cells: A431
T3 sequence (Q9Y6L6 1-691): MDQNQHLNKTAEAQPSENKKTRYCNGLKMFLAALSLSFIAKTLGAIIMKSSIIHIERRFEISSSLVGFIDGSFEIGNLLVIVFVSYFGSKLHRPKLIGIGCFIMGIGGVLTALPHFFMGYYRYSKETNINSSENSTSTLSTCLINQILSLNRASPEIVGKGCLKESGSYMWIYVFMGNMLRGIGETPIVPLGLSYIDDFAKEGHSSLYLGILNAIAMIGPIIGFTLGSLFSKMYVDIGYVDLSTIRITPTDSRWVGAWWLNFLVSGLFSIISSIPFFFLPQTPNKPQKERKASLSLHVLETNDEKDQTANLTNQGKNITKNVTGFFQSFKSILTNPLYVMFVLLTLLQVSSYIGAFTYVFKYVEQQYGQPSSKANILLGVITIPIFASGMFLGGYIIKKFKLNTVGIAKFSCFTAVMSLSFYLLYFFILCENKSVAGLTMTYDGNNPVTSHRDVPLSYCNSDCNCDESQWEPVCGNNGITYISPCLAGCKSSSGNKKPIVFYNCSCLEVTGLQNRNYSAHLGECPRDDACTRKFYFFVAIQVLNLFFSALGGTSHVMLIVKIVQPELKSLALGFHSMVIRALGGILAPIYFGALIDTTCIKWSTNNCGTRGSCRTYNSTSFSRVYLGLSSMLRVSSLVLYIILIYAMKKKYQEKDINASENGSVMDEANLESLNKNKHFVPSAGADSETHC
Procedure: (§1) Direct uptake of AMP, MYR, and their sulfate metabolites were examined in A431 cells overexpressing OATP1B1 or OATP2B1, and in their mock‐transfected controls using APB as a fluorescence enhancer. One day before the uptake measurements, the cells were seeded onto 96‐well plates at a density of 80 000 cells/well in DMEM (200 μL). The following day, the cell culture medium was removed, and the cells were rinsed thrice with PBS (200 μL). Thereafter, the cells were preincubated with HBSS (50 μL) for 5 min at 37°C. The uptake reaction was initiated by the addition of a further 50 μL of HBSS containing AMP, MYR, or their sulfate conjugates (10 μM). After incubating for 15 min at 37°C, the reaction was stopped by removing the supernatant and rinsing the cells three times with ice‐cold PBS. Then PBS buffer (200 μL) containing APB (250 μg/mL) and BSA (1 mg/mL) was added to each well.[35] The fluorescence was read using an Enspire plate reader using the wavelengths listed in Section 2.7.
(§2) The concentration‐dependent uptake of M3′S was also tested under the same conditions, except the cells were incubated with 0–10 μM M3′S for 2 min (OATP1B1) or 5 min (OATP2B1).
(§3) To test the effect of BSP (a known inhibitor of OATPs[44]) on the cellular uptake of M3′S, cells were preincubated with HBSS buffer (50 μL) with or without BSP (20 μM) for 5 min at 37°C. Thereafter, we added 50 μL of HBSS containing M3′S (final concentration: 2 μM), and cells were further incubated at 37°C for 2 min (OATP1B1) or 5 min (OATP2B1). The reaction was stopped by removing the supernatant. After washing the cells with ice‐cold PBS, a PBS buffer with APB/BSA was added. Fluorescence was determined by applying an Enspire plate reader at excitation/emission wavelengths of 480/540 nm.

OATP2B1 [3] = target: T4, OATP2B1 (Homo sapiens, UniProt O94956); assay: Uptake of flavonoids by A431-OATP2B1 versus mock cells (APB fluorescence); type: cell-based; settings: BSP 20 μM, M3′S 2 μM, 5 min
T4 construct: expressed in transfected cells; host or cells: A431
T4 sequence (O94956 1-709): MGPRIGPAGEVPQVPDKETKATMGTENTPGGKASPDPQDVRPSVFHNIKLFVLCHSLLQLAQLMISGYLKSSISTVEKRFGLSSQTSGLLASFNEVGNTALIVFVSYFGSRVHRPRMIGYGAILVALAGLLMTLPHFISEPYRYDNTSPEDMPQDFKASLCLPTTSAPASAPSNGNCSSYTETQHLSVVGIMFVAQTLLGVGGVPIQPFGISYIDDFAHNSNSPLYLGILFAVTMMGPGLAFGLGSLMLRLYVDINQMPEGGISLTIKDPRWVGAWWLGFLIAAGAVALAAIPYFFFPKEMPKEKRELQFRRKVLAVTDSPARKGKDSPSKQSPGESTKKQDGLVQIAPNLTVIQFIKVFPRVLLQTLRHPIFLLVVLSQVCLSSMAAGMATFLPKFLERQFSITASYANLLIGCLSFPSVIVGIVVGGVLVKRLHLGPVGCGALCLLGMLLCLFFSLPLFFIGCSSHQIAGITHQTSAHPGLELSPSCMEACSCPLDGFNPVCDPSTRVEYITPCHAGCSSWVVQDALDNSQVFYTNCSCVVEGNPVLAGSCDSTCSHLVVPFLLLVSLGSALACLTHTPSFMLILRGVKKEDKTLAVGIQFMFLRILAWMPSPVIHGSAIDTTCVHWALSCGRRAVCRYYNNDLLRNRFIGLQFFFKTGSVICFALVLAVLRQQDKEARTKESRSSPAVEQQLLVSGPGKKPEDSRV
Procedure: as §1, §2, §3

OATP1B1 [4] = target: T3, OATP1B1; design: method as in PMID 32661014; settings: positive control, same experimental model; cited from earlier work
OATP2B1 [5] = target: T4, OATP2B1; design: method as in PMID 32661014; settings: positive control, same experimental model; cited from earlier work

In the case of CC(=O)N1CCN(c2ccc(OCC3COC(Cn4ccnc4)(c4ccc(Cl)cc4Cl)O3)cc2)CC1 (centres unmarked) [ketoconazole], the “effect on CYP3A4 metabolite formation” value (CYP3A4) is reported as “marked decreases in metabolite formation”.
With Nc1ccc(S(=O)(=O)Nc2ccnn2-c2ccccc2)cc1 [sulfaphenazole] the “effect on CYP2C9‐catalyzed diclofenac hydroxylation (metabolite formation)” value (CYP2C9) was “marked decreases in metabolite formation”.
In the case of O=c1cc(-c2ccccc2)oc2cc(OS(=O)(=O)O)cc(O)c12 [chrysin‐7‐sulfate], the “displacement of the site marker warfarin from HSA” value [1] is listed as “almost completely displaced the site marker”.
For O=c1c(O)c(-c2ccc(O)c(OS(=O)(=O)O)c2)oc2cc(O)cc(O)c12 [quercetin‐3′‐sulfate], the “displacement of the site marker warfarin from HSA” value [1] is given as “almost completely displaced the site marker”.
In the case of O=C1OC(c2ccc(O)c(S(=O)(=O)O)c2)(c2ccc(O)c(S(=O)(=O)O)c2)c2c(Br)c(Br)c(Br)c(Br)c21 [BSP, bromosulfophthalein, reference compound], the “effect on uptake of M3′S into OATP1B1‐overexpressing cells” value (OATP1B1 [2]) is listed as “considerably decreased the uptake of M3′S”, the “effect on uptake of M3′S into OATP2B1‐overexpressing cells” value (OATP2B1 [3]) is listed as “considerably decreased the uptake of M3′S” and the IC50 (OATP1B1 [4]) is listed as 0.06 µM. The IC50 (OATP2B1 [5]) was 1.3 µM.
